The values that follow come from patent US8614238B2, “Cyclopentanecarboxamide derivatives, medicaments containing such compounds and their use” (Boehringer Ingelheim International GmbH, priority 2009, dated 2013).

As usually defined, the IC50 is the midpoint of a concentration-inhibition curve.

Assay [1] has as its target T1, Fatty Acid Synthase (FAS) (Homo sapiens, UniProt P49327).
T1 construct: The FAS enzyme is prepared from HeLa cells; endogenous in cells; host or cells: HeLa cells
As to the kind of experiment: Human FAS Enzyme Assay. The assay is classed as biochemical. The settings on record: FAS enzyme prepared from HeLa cells; NADPH consumption; read-out: IC50 (potency range). The text has this: Fatty acid synthase is an enzyme complex that harbours seven enzymatic activities catalysing the reductive synthesis of long chain fatty acids from acetyl CoA and malonyl CoA to palmitate. When acetyl CoA and malonyl CoA are forming palmitate NADPH is consumed forming NADP. Since NADPH is fluorescent but not NADP the reaction can be measured by analysing the decrease in fluorescence.
Acetyl coenzyme A (cat.-no. A-2181) and malonyl coenzyme A (cat.-no. M-4263) are purchased from Sigma. NADPH (cat.-no. 30316) is purchased from Serva. The FAS enzyme is prepared from HeLa cells. All other material is of highest grade commercially available.
In the plates, 10 μl test compound in distilled water/DMSO (final concentration 0.1% DMSO) are mixed with 35 μl of a mixture of NADPH and acetyl CoA in phosphate buffer (f.c. 326 μM and 60 μM, respectively), and 45 μl FAS enzyme diluted in enzyme buffer. The plates are incubated for 60 minutes at 37° C. The reaction is then started by the addition of 10 μl malonyl CoA dissolved in water (200 μM). The decrease of the optical density in the wells is determined at 37° C. at a wavelength of 340 nm over 10 minutes. From these kinetic data, the slope (i.e. Vmax) is calculated and used for the calculation.
20 mM KH2PO4/K2HPO4, 1 mM EDTA, 1 mM DTT, 5% glycerol, pH 7.4
Each assay 96 well microtiter plate contains wells with vehicle controls instead of compound (1% DMSO in water) as reference for non-inhibited enzyme activity and wells without malonyl CoA as controls for non-specific NADPH degradation. The analysis of the data is performed by the calculation of the OD decrease in the presence of the test compound compared to the OD decrease of the test control wells after subtraction of the non-specific background without the malonyl CoA substrate (slope(sample)-slope(sample w/o malonyl CoA). An inhibitor of the FAS enzyme will give values between Control values (complete reaction without substance) and complete inhibition. Reported values will include: IC50; Top(Control: nmol NADPH oxidized/min/mg); Bottom (MaxInh: nmol NADPH oxidized/min/mg); RATIO (log(IC50 substance/IC50 control inhibitor)).

In a further assay the test system is N-42 cells. Description: 14C-acetate incorporation in N-42 cells. The assay is classed as cell-based. Here is the method:
^14C-Acetat Incorporation in N-42 Cells
30000 cells (N-42), in 24 well plates are incubated with the compound dissolved in 500 μL Krebs-Ringer-buffer for 60 min at 37° C., then incubated with 5 μL 1:10 14C-Acetate dilution (1 000 000 dpm) for 4 hours at 37° C. incubation, then washed with 500 μl PBS. 500 μL chloroform/methanol mix 1:1 and 175 μL sodium hydroxide solution was given in each well. The upper fraction is taken away and the lower fraction is vaporized. 50 μL chloroform/methanol mix 1:1 is again given in every well. 10 μL each are taken and given to scintillation vials with 4 mL Ultima Gold. Each vial is measured for 1 minute in a β-Counter.
Cerulenin, a literature known FAS inhibitor is used to validate the assay.

T1 sequence (P49327 whole entry): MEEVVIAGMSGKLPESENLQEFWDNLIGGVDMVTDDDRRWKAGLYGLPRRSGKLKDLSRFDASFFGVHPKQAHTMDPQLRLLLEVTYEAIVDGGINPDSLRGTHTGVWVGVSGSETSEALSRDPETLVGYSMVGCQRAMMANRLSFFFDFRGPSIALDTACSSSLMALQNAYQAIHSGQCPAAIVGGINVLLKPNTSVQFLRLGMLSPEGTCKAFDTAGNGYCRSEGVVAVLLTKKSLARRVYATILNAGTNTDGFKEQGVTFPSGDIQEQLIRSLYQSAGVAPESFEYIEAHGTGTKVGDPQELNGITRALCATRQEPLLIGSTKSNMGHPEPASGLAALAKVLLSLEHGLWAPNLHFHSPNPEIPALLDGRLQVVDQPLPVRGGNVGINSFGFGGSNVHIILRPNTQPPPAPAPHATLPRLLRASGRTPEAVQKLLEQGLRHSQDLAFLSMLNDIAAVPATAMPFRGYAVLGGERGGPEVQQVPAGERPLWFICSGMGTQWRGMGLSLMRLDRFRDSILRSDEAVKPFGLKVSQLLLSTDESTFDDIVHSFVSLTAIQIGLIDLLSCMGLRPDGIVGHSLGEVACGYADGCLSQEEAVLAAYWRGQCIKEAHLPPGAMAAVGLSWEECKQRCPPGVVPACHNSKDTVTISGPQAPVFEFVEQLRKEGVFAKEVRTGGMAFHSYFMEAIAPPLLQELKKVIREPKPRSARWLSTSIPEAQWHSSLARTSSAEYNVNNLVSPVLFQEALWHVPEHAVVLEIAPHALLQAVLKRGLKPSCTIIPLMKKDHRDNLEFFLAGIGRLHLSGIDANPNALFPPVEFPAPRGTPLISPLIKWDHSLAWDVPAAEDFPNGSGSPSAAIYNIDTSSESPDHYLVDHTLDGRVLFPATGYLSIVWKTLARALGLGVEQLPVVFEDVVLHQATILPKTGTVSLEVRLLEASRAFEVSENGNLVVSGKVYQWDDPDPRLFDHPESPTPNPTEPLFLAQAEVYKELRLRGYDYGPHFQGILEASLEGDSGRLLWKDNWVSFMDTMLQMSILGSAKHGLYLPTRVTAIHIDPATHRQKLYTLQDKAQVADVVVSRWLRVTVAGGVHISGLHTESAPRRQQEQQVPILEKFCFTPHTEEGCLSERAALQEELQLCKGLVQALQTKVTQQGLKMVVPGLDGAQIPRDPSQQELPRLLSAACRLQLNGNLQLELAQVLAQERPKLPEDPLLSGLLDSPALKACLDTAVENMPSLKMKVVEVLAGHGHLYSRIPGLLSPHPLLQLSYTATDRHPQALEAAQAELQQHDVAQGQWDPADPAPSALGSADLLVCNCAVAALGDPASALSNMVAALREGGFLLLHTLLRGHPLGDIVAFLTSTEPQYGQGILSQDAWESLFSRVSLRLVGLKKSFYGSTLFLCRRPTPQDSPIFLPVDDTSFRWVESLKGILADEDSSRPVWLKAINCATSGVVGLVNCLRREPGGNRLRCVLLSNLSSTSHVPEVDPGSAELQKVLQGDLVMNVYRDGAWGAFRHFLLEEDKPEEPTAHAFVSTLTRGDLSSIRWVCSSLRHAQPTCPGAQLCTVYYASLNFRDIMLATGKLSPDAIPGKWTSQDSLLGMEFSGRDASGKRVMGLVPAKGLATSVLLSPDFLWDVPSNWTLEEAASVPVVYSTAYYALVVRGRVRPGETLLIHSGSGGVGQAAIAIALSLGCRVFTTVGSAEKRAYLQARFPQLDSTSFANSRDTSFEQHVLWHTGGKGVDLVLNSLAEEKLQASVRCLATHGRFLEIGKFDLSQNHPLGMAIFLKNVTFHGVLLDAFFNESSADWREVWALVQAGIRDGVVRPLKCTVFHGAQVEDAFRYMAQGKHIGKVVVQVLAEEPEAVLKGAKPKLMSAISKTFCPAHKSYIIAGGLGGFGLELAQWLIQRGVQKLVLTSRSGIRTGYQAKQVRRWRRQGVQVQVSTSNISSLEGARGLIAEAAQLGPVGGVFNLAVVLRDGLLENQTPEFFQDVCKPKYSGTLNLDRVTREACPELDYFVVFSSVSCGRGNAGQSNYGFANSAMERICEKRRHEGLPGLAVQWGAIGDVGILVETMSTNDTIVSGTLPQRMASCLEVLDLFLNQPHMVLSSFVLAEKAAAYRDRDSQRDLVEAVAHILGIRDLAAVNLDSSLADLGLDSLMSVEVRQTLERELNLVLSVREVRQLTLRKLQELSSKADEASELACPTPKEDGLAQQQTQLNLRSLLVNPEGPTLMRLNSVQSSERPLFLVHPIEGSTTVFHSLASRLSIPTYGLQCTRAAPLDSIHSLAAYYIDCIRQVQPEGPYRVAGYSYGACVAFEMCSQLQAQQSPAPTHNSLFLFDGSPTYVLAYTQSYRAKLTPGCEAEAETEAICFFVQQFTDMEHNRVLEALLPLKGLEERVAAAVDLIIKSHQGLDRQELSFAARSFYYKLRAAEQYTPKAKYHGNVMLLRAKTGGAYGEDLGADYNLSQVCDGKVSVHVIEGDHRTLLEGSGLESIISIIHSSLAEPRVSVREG

On to `CCC(=O)N[C@H]1CC[C@@H](C(=O)N(C)c2ccc(-c3nc4ccccc4n3C)cc2)C1` [Example 5.1, (1R,3S)-3-Propionylamino-cyclopentanecarboxylic acid N-methyl-N-[4-(1-methyl-1H-benzoimidazol-2-yl)-phenyl]-amide], for which the half-inhibitory concentration (IC50) in assay [1] was not above 500 nM. Besides, in the assay with N-42 cells (compound at 10 μM), the “% control 14C acetate incorporation” value is given as 85.7 % control.

Regarding `CCNC(=O)N[C@H]1CC[C@@H](C(=O)N(C)c2ccc(-c3nc4ccccc4o3)cc2)C1` [Example 1.1, (1R,3S)-3-(3-Ethyl-ureido)-cyclopentanecarboxylic acid N-(4-benzooxazol-2-yl-phenyl)-N-methyl-amide], in assay [1], the IC50 was in the range of 500 to 3000 nM.

Regarding `CC(=O)N[C@H]1CC[C@@H](C(=O)N(C)c2ccc(-c3ccccc3)cc2)C1` [Example 3.3, (1R,3S)-3-Acetylamino-cyclopentanecarboxylic acid N-biphenyl-4-yl-N-methyl-amide], the IC50 in assay [1] was not above 500 nM.

For `CC(=O)N[C@H]1CC[C@@H](C(=O)N(C)c2ccc(-c3nc4ccccc4o3)cc2)C1` [Example 1.3, (1R,3S)-3-Acetylamino-cyclopentanecarboxylic acid N-(4-benzooxazol-2-yl-phenyl)-N-methyl-amide], the IC50 in assay [1] is not above 500 nM. Besides, the “% control 14C acetate incorporation” value in the assay with N-42 cells (compound at 10 μM) amounted to 81.7 % control.

Regarding `CCC(=O)N[C@H]1CC[C@@H](C(=O)N(C)c2ccc(-c3ccccc3)cc2)C1` [Example 3.1, (1R,3S)-3-Propionylamino-cyclopentanecarboxylic acid N-biphenyl-4-yl-N-methyl-amide], in assay [1], the half-maximal inhibitory concentration (IC50) is not above 500 nM. Moreover, the “% control 14C acetate incorporation” value in the assay on N-42 cells (compound at 10 μM) is on record as 76.8 % control.

On to `CCNC(=O)N[C@H]1CC[C@@H](C(=O)N(C)c2ccc(-c3nc4ccccc4n3C)cc2)C1` [Example 4.1, (1R,3S)-3-(3-Ethyl-ureido)-cyclopentanecarboxylic acid N-methyl-N-[4-(1-methyl-1H-benzoimidazol-2-yl)-phenyl]-amide], for which the IC50 in assay [1] lay within 500 to 3000 nM.

Consider `CCNC(=O)N[C@H]1CC[C@@H](C(=O)N(C)c2ccc(-c3ccccc3)cc2)C1` [Example 3.4, (1R,3S)-3-(3-Ethyl-ureido)-cyclopentanecarboxylic acid N-biphenyl-4-yl-N-methyl-amide], for which, in assay [1], the IC50 lay in the range of 500 to 3000 nM.

As to `CN(C)CCCCCC(=O)N[C@H]1CC[C@@H](C(=O)N(C)c2ccc(-c3nc4ccccc4[nH]3)cc2)C1` [Example 2.5, (1R,3S)-3-(6-Dimethylamino-hexanoylamino)-cyclopentanecarboxylic acid N-[4′-(1H-benzoimidazol-2 yl)-phenyl]-N-methyl-amide], the IC50 in assay [1] was in the range of 500 to 3000 nM.

`CN(C(=O)[C@@H]1CC[C@H](NC(=O)C(F)F)C1)c1ccc(-c2nc3ccccc3o2)cc1` [Example 1.8, (1R,3S)-3-(2,2-Difluoro-acetylamino)-cyclopentanecarboxylic acid N-(4-benzooxazol-2-yl-phenyl)-N-methyl-amide]: in assay [1], the IC50 is not above 500 nM.

As to `CCC(=O)N[C@H]1CC[C@@H](C(=O)N(C)c2ccc(-c3nc4ccccc4[nH]3)cc2)C1` [Example 2.1, (1R,3S)-3-Propionylamino-cyclopentanecarboxylic acid N-[4′-(1H-benzoimidazol-2-yl)-phenyl]-N-methyl-amide], the IC50 in assay [1] is not above 500 nM. In the assay with N-42 cells (compound at 10 μM), the “% control 14C acetate incorporation” value amounted to 80.8 % control.

Turning to `CCNC(=O)N[C@H]1CC[C@@H](C(=O)N(C)c2ccc(-c3nc4ccccc4[nH]3)cc2)C1` [Example 2.4, (1R,3S)-3-(3-Ethyl-ureido)-cyclopentanecarboxylic acid N-[4′-(1H-benzoimidazol-2-yl)-phenyl]-N-methyl-amide], in assay [1], the IC50 is not above 500 nM.

Take `CN(C)CCCCCC(=O)N[C@H]1CC[C@@H](C(=O)N(C)c2ccc(-c3nc4ccccc4o3)cc2)C1` [Example 1.4, (1R,3S)-3-(6-Dimethylamino-hexanoylamino)-cyclopentanecarboxylic acid N-(4-benzooxazol-2-yl-phenyl)-N-methyl-amide]: in assay [1], the IC50 was 500 to 3000 nM.

On to `CN(C)C(=O)N[C@H]1CC[C@@H](C(=O)N(C)c2ccc(-c3nc4ccccc4o3)cc2)C1` [Example 1.7, (1R,3S)-3-(3,3-Dimethyl-ureideo)-cyclopentanecarboxylic acid N-(4-benzooxazol-2-yl-phenyl)-N-methyl-amide], for which the IC50 in assay [1] was not above 500 nM.

Consider `CC(=O)N[C@H]1CC[C@@H](C(=O)N(C)c2ccc(-c3nc4ccccc4[nH]3)cc2)C1` [Example 2.2, (1R,3S)-3-Acetylamino-cyclopentanecarboxylic acid N-[4′-(1H-benzoimidazol-2-yl)-phenyl]-N-methyl-amide], for which, in assay [1], the IC50 was 500 to 3000 nM.

As to `CCC(=O)N[C@H]1CC[C@@H](C(=O)N(C)c2ccc(-c3cn4ccccc4n3)cc2)C1` [Example 5.2, (1R,3S)-3-Propionylamino-cyclopentanecarboxylic acid N-[4-(imidazo[1,2-a]pyridin-2-yl)-phenyl]-N-methyl-amide], the IC50 in assay [1] was 500 to 3000 nM.

As for `CCCC(=O)N[C@H]1CC[C@@H](C(=O)N(C)c2ccc(-c3nc4ccccc4o3)cc2)C1` [Example 1.6, (1R,3S)-3-Butyrylamino-cyclopentanecarboxylic acid N-(4-benzooxazol-2-yl-phenyl)-N-methyl-amide], the IC50 in assay [1] was not above 500 nM. Also, the “% control 14C acetate incorporation” value in the assay on N-42 cells (compound at 10 μM) was 81.0 % control.

On to `COCC(=O)N[C@H]1CC[C@@H](C(=O)N(C)c2ccc(-c3nc4ccccc4o3)cc2)C1` [Example 1.5, (1R,3S)-3-(2-Methoxy-acetylamino)-cyclopentanecarboxylic acid N-(4-benzooxazol-2-yl-phenyl)-N-methyl-amide], for which the IC50 in assay [1] lay within 500 to 3000 nM.

Regarding `C/C=C/C/C=C/CCC(=O)[C@H]1O[C@H]1C(N)=O` [Cerulenin, reference compound], the “% control 14C acetate incorporation” value in the assay on N-42 cells (compound at 100 μM) was found to be 73.3 % control.

Take `CN(C)CCCCCC(=O)N[C@H]1CC[C@@H](C(=O)N(C)c2ccc(-c3ccccc3)cc2)C1` [Example 3.5, (1R,3S)-3-(6-Dimethylamino-hexanoylamino)-cyclopentanecarboxylic acid N-biphenyl-4-yl-N-methyl-amide]: in assay [1], the 50% inhibitory concentration (IC50) was 500 to 3000 nM.

With `CC(C)C(=O)N[C@H]1CC[C@@H](C(=O)N(C)c2ccc(-c3nc4ccccc4[nH]3)cc2)C1` [Example 2.3, (1R,3S)-3-Isobutyrylamino-cyclopentanecarboxylic acid N-[4′-(1H-benzoimidazol-2-yl)-phenyl]-N-methyl-amide], the IC50 in assay [1] fell in the range of 500 to 3000 nM.

With `CC(C)C(=O)N[C@H]1CC[C@@H](C(=O)N(C)c2ccc(-c3ccccc3)cc2)C1` [Example 3.2, (1R,3S)-3-Isobutyrylamino-cyclopentanecarboxylic acid N-biphenyl-4-yl-N-methyl-amide], the IC50 in assay [1] is not above 500 nM.

For `CN(C)CCCCCC(=O)N[C@H]1CC[C@@H](C(=O)N(C)c2ccc(-c3nc4ccccc4n3C)cc2)C1` [Example 4.2, (1R,3S)-3-(6-Dimethylamino-hexanoylamino)-cyclopentanecarboxylic acid N-methyl-N-[4-(1-methyl-1H-benzoimidazol-2-yl)-phenyl]-amide], in assay [1], the 50% inhibitory concentration (IC50) lay in the range of 500 to 3000 nM.
